Species on record: Rattus norvegicus
Assay: Open TG-GATES - Regimen: Daily Repeat
Assay type: toxicity, organism-based, Sprague-Dawley
Set-up: regimen Daily Repeat, gender Male, age 6 weeks
Conditions: in vivo, iv, route intravenous injection; for APTT / Bas / Eos / Fbg / Ht / Lym / MCH / MCHC / MCV / Mono / Neu / PT / Plat / RBC / Ret / WBC / Hb: tissue Blood; for KIDNEY_L / KIDNEY_R / KIDNEY_TOTAL: tissue Kidney; for LIVER: tissue Liver
[1] = 0 mg/kg, 72 h, dose level Control, time 3 day
[2] = 0 mg/kg, 72 h, tissue Plasma, dose level Control, time 3 day
[3] = 0 mg/kg, […], dose level Control, time 7 day
[4] = 0 mg/kg, […], dose level Control, time 14 day
[5] = 0 mg/kg, […], dose level Control, time 28 day
[6] = 0 mg/kg, […], tissue Plasma, dose level Control, time 7 day
[7] = 0 mg/kg, […], tissue Plasma, dose level Control, time 14 day
[8] = 0 mg/kg, […], tissue Plasma, dose level Control, time 28 day
[9] = 10 mg/kg, 72 h, dose level Low, time 3 day
[10] = 10 mg/kg, 72 h, tissue Plasma, dose level Low, time 3 day
[11] = 10 mg/kg, […], dose level Low, time 7 day
[12] = 10 mg/kg, […], dose level Low, time 14 day
[13] = 10 mg/kg, […], dose level Low, time 28 day
[14] = 10 mg/kg, […], tissue Plasma, dose level Low, time 7 day
[15] = 10 mg/kg, […], tissue Plasma, dose level Low, time 14 day
[16] = 10 mg/kg, […], tissue Plasma, dose level Low, time 28 day

GENTAMICIN
TERMINAL_BW [1]: 231.1 g | APTT [1]: 23.2 s | Bas [1]: 0% | Eos [1]: 1% | Fbg [1]: 286.6 mg/dL | Ht [1]: 37.6% | Lym [1]: 72.8% | MCH [1]: 21.1 pg | MCHC [1]: 34.9% | MCV [1]: 60.6 fL | Mono [1]: 3.2% | Neu [1]: 21.6% | PT [1]: 16.9 s | Plat [1]: 119.1 x10_4/uL | RBC [1]: 621 x10_4/ul | Ret [1]: 5.8% | WBC [1]: 105.4 x10_2/uL | KIDNEY_L [1]: 1.1 g | KIDNEY_R [1]: 1 g | KIDNEY_TOTAL [1]: 2.1 g | ALP [2]: 1838 IU/L | ALT [2]: 41.8 IU/L | AST [2]: 70.2 IU/L | BUN [2]: 16.2 mg/dL | CRE [2]: 0.2 mg/dL | DBIL [2]: 0 mg/dL | IP [2]: 6.9 mg/dL | K [2]: 4.5 meq/L | LDH [2]: 157.2 IU/L | Na [2]: 139.6 meq/L | PL [2]: 147.8 mg/dL | RALB [2]: 3 g/dL | TBIL [2]: 0.006 mg/dL | TC [2]: 72.8 mg/dL | TG [2]: 107.6 mg/dL | TP [2]: 5.5 g/dL | gamma-GTP [2]: 1.6 IU/L | TERMINAL_BW [3]: 261.2 g | TERMINAL_BW [4]: 307.6 g | TERMINAL_BW [5]: 392.7 g | APTT [3]: 22.1 s | Bas [3]: 0% | Eos [3]: 0.8% | Fbg [3]: 273.2 mg/dL | Ht [3]: 37.1% | Lym [3]: 80% | MCH [3]: 20.6 pg | MCV [3]: 58.5 fL | Mono [3]: 3% | Neu [3]: 15.5% | PT [3]: 16 s | Plat [3]: 118.1 x10_4/uL | RBC [3]: 636.2 x10_4/ul | Ret [3]: 4.1% | WBC [3]: 124.9 x10_2/uL | APTT [4]: 23 s | Bas [4]: 0% | Eos [4]: 0.8% | Fbg [4]: 267.8 mg/dL | Ht [4]: 40.2% | Lym [4]: 78% | MCH [4]: 21 pg | MCHC [4]: 35.7% | MCV [4]: 58.8 fL | Mono [4]: 2.6% | Neu [4]: 17.6% | PT [4]: 16.2 s | Plat [4]: 123.5 x10_4/uL | RBC [4]: 684.8 x10_4/ul | Ret [4]: 4% | WBC [4]: 103.9 x10_2/uL | APTT [5]: 24.6 s | Bas [5]: 0% | Eos [5]: 1.2% | Fbg [5]: 290.2 mg/dL | Hb [5]: 15.4 g/dL | Ht [5]: 43.3% | Lym [5]: 83% | MCHC [5]: 35.5% | MCV [5]: 57.6 fL | Mono [5]: 2% | Plat [5]: 102.2 x10_4/uL | RBC [5]: 752 x10_4/ul | Ret [5]: 2.3% | WBC [5]: 107.5 x10_2/uL | KIDNEY_L [3]: 1.1 g | KIDNEY_R [3]: 1.1 g | KIDNEY_TOTAL [3]: 2.2 g | KIDNEY_L [4]: 1.2 g | KIDNEY_R [4]: 1.2 g | KIDNEY_TOTAL [4]: 2.4 g | KIDNEY_L [5]: 1.4 g | KIDNEY_R [5]: 1.3 g | KIDNEY_TOTAL [5]: 2.7 g | LIVER [5]: 15.2 g | ALP [6]: 1702.5 IU/L | ALT [6]: 40.5 IU/L | AST [6]: 72.2 IU/L | BUN [6]: 17 mg/dL | CRE [6]: 0.2 mg/dL | DBIL [6]: 0 mg/dL | GLC [6]: 214 mg/dL | IP [6]: 6.8 mg/dL | K [6]: 4.4 meq/L | LDH [6]: 207.2 IU/L | PL [6]: 135.2 mg/dL | RALB [6]: 2.9 g/dL | TBIL [6]: 0.005 mg/dL | TC [6]: 68.5 mg/dL | TG [6]: 94.5 mg/dL | TP [6]: 5.4 g/dL | gamma-GTP [6]: 1.5 IU/L | ALP [7]: 1249.2 IU/L | ALT [7]: 33.4 IU/L | AST [7]: 61.6 IU/L | CRE [7]: 0.2 mg/dL | DBIL [7]: 0 mg/dL | GLC [7]: 198.6 mg/dL | IP [7]: 7 mg/dL | K [7]: 4.7 meq/L | PL [7]: 140.8 mg/dL | RALB [7]: 3 g/dL | TBIL [7]: 0.002 mg/dL | TC [7]: 63.2 mg/dL | TG [7]: 154 mg/dL | TP [7]: 5.6 g/dL | gamma-GTP [7]: 2 IU/L | ALP [8]: 976 IU/L | ALT [8]: 34.8 IU/L | AST [8]: 58.8 IU/L | BUN [8]: 18.2 mg/dL | CRE [8]: 0.2 mg/dL | DBIL [8]: 0 mg/dL | GLC [8]: 190.8 mg/dL | IP [8]: 6.5 mg/dL | K [8]: 4.1 meq/L | LDH [8]: 115.4 IU/L | PL [8]: 135.6 mg/dL | RALB [8]: 3 g/dL | TBIL [8]: 0.004 mg/dL | TG [8]: 101 mg/dL | TP [8]: 6 g/dL | gamma-GTP [8]: 2.4 IU/L | TERMINAL_BW [9]: 228.4 g | Bas [9]: 0% | Eos [9]: 0.8% | Fbg [9]: 300.8 mg/dL | Ht [9]: 38.3% | Lym [9]: 71.8% | MCHC [9]: 34.8% | MCV [9]: 59.9 fL | Mono [9]: 3.8% | Neu [9]: 22% | PT [9]: 17 s | Plat [9]: 124.4 x10_4/uL | RBC [9]: 640 x10_4/ul | Ret [9]: 5.2% | WBC [9]: 102 x10_2/uL | KIDNEY_L [9]: 1 g | KIDNEY_R [9]: 1 g | KIDNEY_TOTAL [9]: 2 g | LIVER [9]: 10.2 g | AST [10]: 71.8 IU/L | BUN [10]: 18.2 mg/dL | CRE [10]: 0.2 mg/dL | DBIL [10]: 0 mg/dL | GLC [10]: 174.6 mg/dL | IP [10]: 6.6 mg/dL | K [10]: 4.5 meq/L | LDH [10]: 157.2 IU/L | PL [10]: 131.2 mg/dL | RALB [10]: 3 g/dL | TBIL [10]: 0.012 mg/dL | TC [10]: 66.4 mg/dL | TG [10]: 84.6 mg/dL | TP [10]: 5.5 g/dL | gamma-GTP [10]: 1.4 IU/L | TERMINAL_BW [11]: 260.4 g | TERMINAL_BW [12]: 320 g | TERMINAL_BW [13]: 376.9 g | APTT [11]: 22.1 s | Bas [11]: 0% | Eos [11]: 1.4% | Fbg [11]: 290 mg/dL | Hb [11]: 13.7 g/dL | Ht [11]: 40% | Lym [11]: 75.8% | MCHC [11]: 34.4% | MCV [11]: 60.6 fL | Mono [11]: 2.6% | Plat [11]: 122 x10_4/uL | RBC [11]: 660.6 x10_4/ul | Ret [11]: 4.7% | WBC [11]: 106.3 x10_2/uL | APTT [12]: 22.5 s | Bas [12]: 0% | Eos [12]: 1% | Fbg [12]: 298.2 mg/dL | Hb [12]: 14.1 g/dL | Ht [12]: 39.7% | Lym [12]: 75.8% | MCH [12]: 20.6 pg | MCHC [12]: 35.5% | MCV [12]: 58.2 fL | Mono [12]: 2.8% | Neu [12]: 18.8% | PT [12]: 16.5 s | Plat [12]: 124.8 x10_4/uL | RBC [12]: 683 x10_4/ul | Ret [12]: 4.4% | WBC [12]: 118.2 x10_2/uL | APTT [13]: 25.6 s | Bas [13]: 0% | Eos [13]: 1.6% | Fbg [13]: 309.2 mg/dL | Ht [13]: 43.2% | MCHC [13]: 36.1% | MCV [13]: 53.9 fL | Mono [13]: 2% | Neu [13]: 16.4% | PT [13]: 16.5 s | Plat [13]: 112.8 x10_4/uL | RBC [13]: 803.4 x10_4/ul | Ret [13]: 1.9% | WBC [13]: 114.2 x10_2/uL | KIDNEY_L [11]: 1 g | KIDNEY_R [11]: 1 g | KIDNEY_TOTAL [11]: 2.1 g | KIDNEY_L [12]: 1.3 g | KIDNEY_R [12]: 1.3 g | KIDNEY_TOTAL [12]: 2.6 g | KIDNEY_L [13]: 1.4 g | KIDNEY_R [13]: 1.4 g | KIDNEY_TOTAL [13]: 2.7 g | LIVER [12]: 13.6 g | LIVER [13]: 13.7 g | ALP [14]: 1411.6 IU/L | ALT [14]: 40.2 IU/L | AST [14]: 73 IU/L | BUN [14]: 18.2 mg/dL | CRE [14]: 0.2 mg/dL | DBIL [14]: 0 mg/dL | GLC [14]: 188.6 mg/dL | IP [14]: 6.5 mg/dL | K [14]: 4.3 meq/L | LDH [14]: 203.6 IU/L | PL [14]: 146.8 mg/dL | RALB [14]: 3 g/dL | TBIL [14]: 0.008 mg/dL | TC [14]: 70.4 mg/dL | TG [14]: 121.8 mg/dL | TP [14]: 5.5 g/dL | gamma-GTP [14]: 1.2 IU/L | ALP [15]: 1519.6 IU/L | ALT [15]: 37 IU/L | AST [15]: 65.4 IU/L | CRE [15]: 0.2 mg/dL | DBIL [15]: 0 mg/dL | GLC [15]: 186.6 mg/dL | IP [15]: 6.3 mg/dL | K [15]: 4.4 meq/L | LDH [15]: 131.2 IU/L | RALB [15]: 3.1 g/dL | TBIL [15]: 0.006 mg/dL | TC [15]: 61.8 mg/dL | TG [15]: 152 mg/dL | TP [15]: 5.8 g/dL | gamma-GTP [15]: 1.8 IU/L | AST [16]: 66 IU/L | CRE [16]: 0.2 mg/dL | DBIL [16]: 0 mg/dL | GLC [16]: 176 mg/dL | IP [16]: 5.8 mg/dL | K [16]: 4.1 meq/L | LDH [16]: 137.2 IU/L | PL [16]: 132 mg/dL | RALB [16]: 3.1 g/dL | TBIL [16]: 0.004 mg/dL | TC [16]: 67.4 mg/dL | TG [16]: 113.6 mg/dL | TP [16]: 6.1 g/dL
